We go through one compound from patent US20240360247A1, “COMPOSITIONS AND METHODS FOR TREATMENT OF CANCER” (Johns Hopkins University, priority 2021, published 2024).

The test system of assay [1] is HCT-116 cells. The assay is described as follows: Effect of D-PDMP on cell proliferation (3H-thymidine incorporation). In kind it is cell-based, human. The protocol:
HCT-116 cells were seeded (10^4/well) in 96-well sterile plastic plates, and grown for 24 h in complete medium, with 10% fetal calf serum. The media was then replaced with 2% serum-containing media (100 μL) plus ^3H-thymidine ([…]), with and without D-PDMP. After another 24 h incubation, incorporation of ^3H-thymidine into DNA was measured by scintillation spectrometry.

A further assay concerns the target T1, UGCG (Homo sapiens, UniProt Q16739).
T1 construct: endogenous in cells; host or cells: HCT-116
T1 sequence (Q16739 1-394): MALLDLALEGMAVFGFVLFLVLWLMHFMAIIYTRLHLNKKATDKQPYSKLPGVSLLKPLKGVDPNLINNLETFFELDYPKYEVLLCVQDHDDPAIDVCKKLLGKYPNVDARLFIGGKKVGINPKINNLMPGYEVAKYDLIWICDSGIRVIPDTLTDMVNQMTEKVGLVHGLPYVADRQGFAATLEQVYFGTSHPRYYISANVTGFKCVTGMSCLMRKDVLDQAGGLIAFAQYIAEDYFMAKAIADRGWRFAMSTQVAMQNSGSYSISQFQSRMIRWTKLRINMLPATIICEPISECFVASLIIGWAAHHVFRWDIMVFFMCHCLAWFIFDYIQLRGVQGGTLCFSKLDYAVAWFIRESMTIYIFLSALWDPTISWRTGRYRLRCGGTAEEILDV
The assay is described as follows: Effect of D-PDMP on IHC localization of glycosyltransferases in human CRC cells (UGCG). In kind it is cell-based. The following applies: HCT-116, 10p M D-PDMP, 24 h, vs control. The protocol:
(§1) HCT-116 cells were seeded (10^4) onto sterilized glass coverslips, which were then placed in 6-well sterile plastic trays and grown for 24 h in complete media. Next, the media was replaced with 2 mL of 2% serum-containing media, plus […] D-PDMP. After incubation for 24 and 96 h, the media was removed, and cells were fixed with ethanol, washed, incubated with antibody against β-1,4-GalT-V or UGCG, and photographed.

For a further assay, the target named is T2, β-1,4-GalT-V (Homo sapiens, UniProt O43286).
T2 construct: endogenous in cells; host or cells: HCT-116
T2 sequence (O43286 1-388): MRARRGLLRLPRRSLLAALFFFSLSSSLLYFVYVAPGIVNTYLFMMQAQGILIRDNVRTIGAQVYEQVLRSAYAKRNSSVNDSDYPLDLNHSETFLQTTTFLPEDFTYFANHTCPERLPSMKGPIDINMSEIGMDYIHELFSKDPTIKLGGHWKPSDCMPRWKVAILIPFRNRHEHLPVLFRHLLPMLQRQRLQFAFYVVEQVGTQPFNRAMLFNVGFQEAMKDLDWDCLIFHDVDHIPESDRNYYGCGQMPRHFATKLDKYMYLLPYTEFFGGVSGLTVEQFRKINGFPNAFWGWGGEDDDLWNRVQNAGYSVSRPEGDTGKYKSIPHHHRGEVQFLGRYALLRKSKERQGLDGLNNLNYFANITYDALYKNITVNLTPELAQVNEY
The assay is described as follows: Effect of D-PDMP on IHC localization of glycosyltransferases in human CRC cells (β-1,4-GalT-V). In kind it is cell-based. The following applies: HCT-116, D-PDMP, 24 and 96 h, vs controls. As for the experimental part: as §1

Assay [2] deals with HCT-116 cells. Description: LC-MS sphingolipid levels in HCT-116 cells. In kind it is cell-based, human. The following applies: D-PDMP 10 μM, 24 h, vs control. The protocol: HCT-116 cells were seeded ([…]) onto sterilized (100-mm^2) plastic Petri dishes in 10 mL of medium for 24 h. Media was then changed to 2% serum-containing media, with and without D-PDMP (10 μM). After 24 h, media was removed, and total lipids were extracted, using hexane-isopropanol (3:2, by volume) in the presence of sphingolipid internal standards, and subject to MS. […] Data represent averages±SEm, N=3 biological replicates for control and 10 μM D-PDMP in (FIGS. 4A-4H), and the unpaired t-tested was used for statistical analysis.*P≤0.05,**P≤0.01]\
Sphingolipid levels in human CRC tissue and in human cultured CRC cells (HCT-116) were measured by LC-MS, as described previously (23). Visibly normal and CRC tissues (50 mg) were homogenized in chloroform-methanol (2:1), in the presence of sphingolipid internal standards. […] HCT-116 cells were grown in 100 mm^2 sterile, plastic Petri dishes. Lipid extracts were subject to LC-MS, as described (24, 25).

Assay [3] relates to human colorectal cancer cells (HCT-116). Description: [89Zr] GalT-V antibody binding and internalization (gamma counter). The following applies: HCT-116 pre-incubated with D-PDMP 20 uM. In kind it is cell-based. As for the experimental part:
Cell cultures were incubated with increasing concentrations of [^89Zr] GalT-V antibody, washed and radioactivity was measured in an automated gamma counter (1282 Compu-gamma CS, Pharmacia/LKB Nuclear, Inc.).
Cell cultures were incubated with increasing concentrations of [^89Zr] GalT-V antibody, washed and radioactivity was measured in a gamma counter. […] GalT-V antibody binding in human coronary arterial endothelial cells (HCAEC) and human colorectal cancer cells (HCT-116) after 2-hour incubation at 37° C.
Cells were pre-incubated with and without an inhibitor of GalT-V, D-PDMP (20 uM), followed by the measurement of binding and internalization of [^89Zr] GalT-V antibody. […] GalT-V antibody (n=3, p**=0.0079).
Cells were incubated in the presence of excess unlabeled (cold, 50 ug/mL) GalT-V antibody as well as [^89Zr] GalT-V Ab. […] (n=3, p****=<0.0001). Results are shown in FIG. 24 which depicts specificity of binding and internalization of [^89Zr] GalT-V antibody in human colorectal cancer cells (HCT-116).

The test system of another assay is renal cancer. The following applies: mouse, in vivo; cited from earlier work.
A further assay has as its system human endothelial cells. The following applies: cited from earlier work.

Consider `CCCCCCCCCC(=O)N[C@H](CN1CCOCC1)[C@H](O)c1ccccc1` [D-PDMP, D-threo-1-phenyl-2-decanoylamino-3-morpholino-1-propanol], for which, in the assay on HCT-116 cells [1] (24 and 96 h, compared to control cells), the “proliferation of HCT-116 cells” value is “dose- and time-dependent (FIGS. 3A, 3B) decrease in proliferation”. Moreover, in the assay with HCT-116 cells [1] (HCT-116, 24 and 96 h), the “maximal effective dose (decrease in proliferation)” value turned out to be 20 µM. Further, on UGCG, the UGCG immunofluorescence entry was “No difference”. The GalT-V fluorescence result on β-1,4-GalT-V is on record as “reduced GalT-V fluorescence”. Also, in the assay on HCT-116 cells [2], the “level of Cer” value is given as “reduced levels”, the “level of DHCer” value was “reduced levels”, the “level of DHLacCer” value is given as “reduced levels” and the level of dihexosylceramide result was “reduced levels”. In addition, in the assay on HCT-116 cells [2], the “level of dihydroGalCer/dihydroGlcCer” value is “reduced levels” and the level of monohexosylceramides entry is “reduced levels”. The “effect on binding and internalization of [89Zr] GalT-V antibody” value in assay [3] is “reduced the binding and internalization”. In the assay on renal cancer, the GalT-V mass entry is given as “markedly reduced” and the tumor volume result was “markedly reduced tumor volume”. The angiogenesis result with human endothelial cells is listed as “reduced angiogenesis”.
